Results reported in ChEMBL document CHEMBL6109163, “6-Aryl Isoindolin-1-ones: Novel mGluR2 Negative Allosteric Modulators” (ACS Med Chem Lett, 2025).

Columns and labels:
[1] = target: Metabotropic glutamate receptor 3 (Rattus norvegicus, UniProt P31422); assay: Negative allosteric modulator activity at rat mGluR3 receptor by TI flux assay-based fluorescence analysis
[2] = target: Metabotropic glutamate receptor 2 (Rattus norvegicus, UniProt P31421); assay: Negative allosteric modulator activity at glutamate-stimulated rat mGluR2 receptor expressed in HEK293 cells assessed as inhibition of thallium flux preincubated for 2 mins 20 secs followed by glutamate addition and measured for 2.5 mins by fluorescence based analysis; type: cell-based
Sequence of Metabotropic glutamate receptor 2 (P31421 whole entry): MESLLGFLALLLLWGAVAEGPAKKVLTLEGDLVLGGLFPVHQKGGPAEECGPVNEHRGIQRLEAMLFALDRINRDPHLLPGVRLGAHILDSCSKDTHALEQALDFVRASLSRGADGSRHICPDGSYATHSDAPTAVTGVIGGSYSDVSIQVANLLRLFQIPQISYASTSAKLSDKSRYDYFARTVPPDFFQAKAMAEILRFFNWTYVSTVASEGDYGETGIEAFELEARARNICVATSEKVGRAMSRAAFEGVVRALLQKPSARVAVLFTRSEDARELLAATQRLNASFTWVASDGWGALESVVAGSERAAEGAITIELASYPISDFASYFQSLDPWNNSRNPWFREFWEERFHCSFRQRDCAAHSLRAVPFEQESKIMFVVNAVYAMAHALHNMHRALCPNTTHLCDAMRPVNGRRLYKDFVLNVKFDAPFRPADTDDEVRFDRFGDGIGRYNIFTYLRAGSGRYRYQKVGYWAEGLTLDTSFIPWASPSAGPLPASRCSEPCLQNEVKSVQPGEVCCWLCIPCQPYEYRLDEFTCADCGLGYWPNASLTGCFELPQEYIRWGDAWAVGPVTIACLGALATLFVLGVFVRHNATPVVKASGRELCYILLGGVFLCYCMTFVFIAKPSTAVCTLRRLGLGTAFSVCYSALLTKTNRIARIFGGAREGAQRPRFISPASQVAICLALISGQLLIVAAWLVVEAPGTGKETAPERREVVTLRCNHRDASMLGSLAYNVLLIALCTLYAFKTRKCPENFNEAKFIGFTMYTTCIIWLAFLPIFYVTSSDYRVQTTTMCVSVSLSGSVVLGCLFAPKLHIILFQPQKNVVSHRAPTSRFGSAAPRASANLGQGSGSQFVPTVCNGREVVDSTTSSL

Sequence of Metabotropic glutamate receptor 3 (P31422 whole entry): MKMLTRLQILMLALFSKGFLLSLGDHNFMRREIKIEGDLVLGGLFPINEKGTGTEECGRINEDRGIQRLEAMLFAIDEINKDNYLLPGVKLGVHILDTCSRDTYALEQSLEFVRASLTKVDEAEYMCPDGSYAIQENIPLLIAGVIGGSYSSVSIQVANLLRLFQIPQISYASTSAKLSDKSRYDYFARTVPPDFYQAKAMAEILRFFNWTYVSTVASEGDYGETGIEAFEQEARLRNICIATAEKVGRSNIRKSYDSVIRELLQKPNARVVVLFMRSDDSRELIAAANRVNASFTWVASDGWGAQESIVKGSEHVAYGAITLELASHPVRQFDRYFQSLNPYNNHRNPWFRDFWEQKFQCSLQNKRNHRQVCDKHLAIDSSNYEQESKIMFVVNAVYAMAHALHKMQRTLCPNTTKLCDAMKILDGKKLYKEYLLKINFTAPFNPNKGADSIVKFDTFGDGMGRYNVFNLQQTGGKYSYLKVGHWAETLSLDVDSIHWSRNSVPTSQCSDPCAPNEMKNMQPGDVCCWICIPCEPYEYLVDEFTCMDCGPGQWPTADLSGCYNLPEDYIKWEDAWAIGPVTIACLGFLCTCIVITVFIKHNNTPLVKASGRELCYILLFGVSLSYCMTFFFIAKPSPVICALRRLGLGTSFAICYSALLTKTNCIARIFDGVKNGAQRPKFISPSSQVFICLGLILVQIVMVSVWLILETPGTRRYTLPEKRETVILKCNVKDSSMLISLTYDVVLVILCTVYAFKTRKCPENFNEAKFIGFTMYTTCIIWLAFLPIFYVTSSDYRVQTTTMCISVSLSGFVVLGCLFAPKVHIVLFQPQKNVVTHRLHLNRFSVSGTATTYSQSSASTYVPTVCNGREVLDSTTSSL

SMILES | IC50 [1] | IC50 [2]
Cc1ccc(-c2cc3c(cc2-c2ccc(F)cc2)C(=O)NC3)cn1 | > 10 µM | 0.659 µM
Cc1ccc(-c2cc3c(cc2-c2ccc(F)cc2)C(=O)NC3)nc1 | > 10 µM | 
N#Cc1cccc(-c2cc3c(cc2-c2ccc(F)cc2F)C(=O)NC3)c1F | > 10 µM | 
O=C1NCc2cc(-c3cnc4[nH]ccc4c3)c(-c3ccc(F)cc3F)cc21 | > 10 µM | 
O=C1NCc2cc(-c3cccnc3C3CC3)c(-c3ccc(F)cc3F)cc21 | > 10 µM | 0.693 µM
O=C1NCc2cc(C3CCOCC3)c(-c3ccc(F)cc3)cc21 | > 10 µM | 
